Source: patent US5814627A, “3, 5-disubstituted and 3, 4, 5-trisubstituted 2-isoxazolines and isoxazoles, process for their preparation and their use as pharmaceuticals” (Hoechst Aktienegesellschaft, priority 1994, dated 1998)

Tests used:
[1] = test system: TNFα release from mononuclear cells; experiment: Test 4: cytokine release from LPS-stimulated mononuclear cells, TNFα; type: cell-based; details: Homo sapiens, read-out: Test 4 residual activity (TNFα release), percent of control
Description: (§1) Test 4. Stimulation of the cytokine release
(§2) Isolation of mononuclear cells from human blood
(§3) 10 ml of human blood, stabilized with 1 ml of 3.8% sodium citrate solution, were diluted with 10 ml of PM16 (Serva, Heidelberg) and underlaid with 15 ml of Lymphoprep (Dr. Molter GmbH, Heidelberg). The samples were centrifuged, at room temperature for 40 minutes, at 400×g (1600 rpm, Minifuge 2, Heraeus, Osterode). The mononuclear cells are visible as a white ring at the Lymphoprep/plasma interface. This ring was carefully removed with a syringe, diluted with an equal volume of PM16, and centrifuged for 10 minutes at 400×g. The sediment was washed with approximately 10 ml of RPMI1640 (+300 mg/l L-glutamine, Gibco, Eggenstein) (Wallis, 1986). After the cells had been resuspended in approximately 1 ml of RPMI1640 (+300 mg/l L-glutamine+25 mM HEPES+100 μg/ml streptomycin+100 μg/ml penicillin), the cell density was determined using a Coulter Counter JT (Coulter Diagnostics) and adjusted to 5*10^6 /ml. Typically, the cells are composed of 90% lymphocytes and 10% monocytes.
(§4) 230 μl of mononuclear cells were incubated, at 37° C.; 5% CO2 for 20-22 hours (5 hours in the case of IL-6), with 10 μl of test substance (10 μM in DMSO/water, 1/10) and 10 μl of lipopolysaccharide (LPS; 500 μg dissolved in 1 ml of DMSO and diluted 1/10 with water prior to beginning the test; from Salmonella abortus equi, Sigma, Deisenhofen). The samples were cooled down to 0° C. in an ice bath and centrifuged in a Sigma centrifuge (2 minutes; 2000 rpm). Aliquots of the supernatant are measured with an ELISA (Biermann, Bad Nauheim). The abbreviation IL stands for interleukin and TNF for tumor necrosis factor alpha.
(§5) The values in the table show the concentration of the test substance which was employed in μM and, besides this, the residual activity measured in percent based on the control, which was set to be 100%. The interleukin is additionally indicated in test 4.

[2] = test system: cyclooxygenase-dependent thrombocyte aggregation; experiment: Test 5: Cyclooxygenase-dependent thrombocyte aggregation; type: cell-based, human; details: Homo sapiens, arachidonic acid as inducer, read-out: Test 5 residual activity (cyclooxygenase-dependent thrombocyte aggregation), percent of control
Procedure, shortened: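 Citrated human platelet-rich plasma was preincubated 10 min at 37 °C with test substance diluted 1:30 in 50 mM Tris-HCl pH 8.0, 90 mM NaCl. Aggregation was triggered with arachidonic acid (5 mg/ml, 20 μl) under 800 rpm stirring in an aggregometer. Values are tested concentration (μM) and residual activity as % of control.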

[3] = test system: tumor cell line 20-10-5S (hybridoma cell line); experiment: Test 8: Inhibition of tumor cell proliferation; type: cell-based; details: 48 h + 16 h tritiated thymidine incorporation; 20-10-5S cells
Description: The tumor cell line 20-10-5S (hybridoma cell line, supplied by ATCC (American Type Culture Collection)), which produces an antibody against mouse T cells) was used for determining the antiproliferative property of test substances. The cells were cultured, at 37° C. and 5% C2, under serum-free conditions in CG medium (cell-growth medium=Iscove-ATL (+albumin+transferrin+lipids); from Vitromex, Vilshofen). Only cells which were in the logarithmic phase of growth were used for the test mixture. The test substances were pipetted in various concentrations (from 1 to 50 μM), together with 4×10^3 20-10-5S cells, into round-bottomedmicrotiter plates (total volume with medium, 200 μl). After an incubation time of 48 h (37° C. and 5% CO2), 25 μl of tritiated thymidine (=0.25 μCi/test mixture, specific activity, 23 Ci/mM) were added to the plates. During the subsequent 16 h, the radioactively labeled thymidine was incorporated into the DNA of the growing cells. The samples were filtered off with suction on glass fiber filters and the incorporated radioactivity was measured using a β counter (Beta Plate System 1205 from Wallac).

[4] = test system: IL-1α release from mononuclear cells; experiment: Test 4: cytokine release from LPS-stimulated mononuclear cells, IL-1α; type: cell-based; details: Homo sapiens, read-out: Test 4 residual activity (IL-1α release), percent of control
Description: as §1, §2, §3
as §4, with “([…])” for “(10 μM in DMSO/water, 1/10)”
as §5

[5] = test system: polymorphonuclear leucocytes (PMNL); experiment: Test 1: Release of proteolytic activity from human PMNL; type: cell-based; details: Homo sapiens, PMNL, read-out: Test 1 residual activity (release of proteolytic activity), percent of control
Description: Isolation of polymorphonuclear leucocytes (PMNL) from human peripheral blood for carrying out tests 1 and 2 10 ml of human blood were diluted with 10 ml of HBSS (Serva) and underlaid with 15 ml of Lymphoprep (Dr. Molter GmbH, Heidelberg). […] A white ring, composed of mononuclear cells, is located between these two phases. The lowermost phase is composed of erythrocytes which are covered with a white layer of PMNL. The uppermost phase, and also the Lymphoprep and the white ring, were carefully removed using a syringe. The remaining sediment was carefully resuspended in 15 ml of 3% dextran in PM16 (mw: 485,000, Sigma, Deisenhofen). The suspension was then left to stand at room temperature for one hour. During this time, the erythrocytes sedimented while the PMNL remained in the supernatant. The supernatant was removed, diluted with an approximately equal volume of PM16, and centrifuged for 15 minutes at 400×g. Should the PMNL sediment be heavily contaminated with erythrocytes, it is necessary to carry out a hypotonic lysis. To do this, the sediment was resuspended in 750 μl of water. After exactly 15 seconds, the suspension was diluted with approximately 7 ml of PM16 and centrifuged for 10 minutes at 400×g. If necessary, this lysis was repeated once more. Otherwise, the PMNL sediment was resuspended in a suitable medium. 250 μl of PMNL (5·10^6 cells/ml of PBS containing 7.5 mM glucose) were incubated at 37° C. for 20 minutes with 1 μl of test substance. 1 μl of cytochalasin B (5 μg/ml of test mixture) was then added and the mixture was incubated at 37° C. for a further 5 minutes. Following the addition of 1 μl of […] necrosis factor alpha (TNF; 30 ng/ml of test mixture), the incubation was continued for 5 minutes. The release was started using 1 μl of fMLP (10 nmol/l of test mixture). After 60 minutes at 37° C., the reaction was terminated by cooling the samples down to 0° C. The samples were then centrifuged, and the supernatant was removed and frozen down. Cytochalasin B and fMLP were dissolved in DMSO and TNF was diluted with buffer. 50 μl of the supernatant were mixed with 175 μl of buffer (100 mM HEPES, pH 7.5; 500 mM NaCl) in a 96-well microtiter plate. Following the addition of 25 μl of substrate (methoxysuccinyl-[…]-nitroanilide), the extinction of each well was measured at 405 nm after 0, 5, 10, 15, 30 and 60 minutes. […] The interleukin is additionally indicated in test 4.

[6] = test system: polymorphonuclear leucocytes (PMNL); experiment: Test 2: Release of oxygen radicals from human PMNL; type: cell-based; details: read-out: Test 2 residual activity (release of oxygen radicals), percent of control
Description: Isolation of polymorphonuclear leucocytes (PMNL) from human peripheral blood for carrying out tests 1 and 2 10 ml of human blood were diluted with 10 ml of HBSS (Serva) and underlaid with 15 ml of Lymphoprep (Dr. Molter GmbH, Heidelberg). The sample was then centrifuged for 25 minutes at 400×g (1600 revolutions per minute, Minifuge 2, Heraeus, Osterode). […] A white ring, composed of mononuclear cells, is located between these two phases. The lowermost phase is composed of erythrocytes which are covered with a white layer of PMNL. The uppermost phase, and also the Lymphoprep and the white ring, were carefully removed using a syringe. The remaining sediment was carefully resuspended in 15 ml of 3% dextran in PM16 (mw: 485,000, Sigma, Deisenhofen). The suspension was then left to stand at room temperature for one hour. During this time, the erythrocytes sedimented while the PMNL remained in the supernatant. The supernatant was removed, diluted with an approximately equal volume of PM16, and centrifuged for 15 minutes at 400×g. Should the PMNL sediment be heavily contaminated with erythrocytes, it is necessary to carry out a hypotonic lysis. To do this, the sediment was resuspended in 750 μl of water. After exactly 15 seconds, the suspension was diluted with approximately 7 ml of PM16 and centrifuged for 10 minutes at 400×g. If necessary, this lysis was repeated once more. Otherwise, the PMNL sediment was resuspended in a suitable medium.
The PMNL were resuspended (5·10^6 cells/ml) in Dulbecco's PBS, supplemented with 7.5 mM glucose. Care must be taken to ensure that the PMNL are free of erythrocytes. 100 μl of PMNL, 700 μl of PBS+glucose and 100 μl of cytochrome C (9.38 mg/ml of PBS+glucose) were mixed in a semi-microcuvette. 100 μl of PMNL, 500 μl of PBS+glucose, 100 μl of cytochalasin B ([…]), 100 μl of TNF (0.05 ng) and 100 μl of cytochrome C (9.38 mg/ml of PBS+glucose) were mixed for the fMLP-induced release of oxygen. Measurements were made in a double-beam photometer meter (Perkin-Elmer 552 S) at a wavelength of 550 nm. The measurement range is 0-1 extinction units. The cuvettes were temperature-equilibrated to 37° C. The reference cuvette additionally contained 10 μl of SOD (6 mg of SOD/ml of PBS+glucose). Following a preincubation of 5 minutes, the reaction is started with 100 μl of inducer. The reaction is started with 1·10^-7 mol of fMLP.
as §5

[7] = test system: adjuvant/arthritis model; experiment: Test 6: antiarthritic effect in the adjuvant/arthritis model; type: in vivo, rat (Wistar-Lewis); details: Rattus norvegicus, po, 408 h, daily for 17 days, rat, read-out: Test 6 Paw volume (% inhibition)
Description: Male rats of a Wistar-Lewis strain (Mollegaard/Denmark) were used as experimental animals. The body weight is between 160 and 200 g. Subplantar injection of 0.1 ml of Freund's adjuvant (=6 mg of Mycobacterium butyricum suspension, Difco Lab./Detroit, Mich. USA, per ml of heavy white paraffin oil, Merck, Darmstadt) into the root of the tail resulted, on the 10th to 14th day of the experiment, in immunopathological processes and chronic inflammations, particularly in the form of arthritic and periarthritic symptoms, at other sites in the body (secondary lesions). The animals were fed ad libitum with the standard feed Altromin-R, from Altrogge, Lage, and provided with tap water. The animals were given 60 mg of codein per kg as an analgesic from the 14th day to the end of the experiment. The test substances were administered orally as a CMC suspension, in an injection volume of 1 ml/100 g of body weight, on each day (in all for 17 days), beginning on the day of the adjuvant administration. The volumes of each of the hind paws, and the body weight, were measured on the first and on the 18th day of the experiment. Diminution in the increase of paw volume, as compared with the untreated control group, served as the criterion of activity, with the two hind paws being averaged.

[8] = test system: PAF-induced asthma attack; experiment: Test 7: antiasthmatic effect, PAF-induced asthma attack; type: in vivo; details: Cavia porcellus; i.d., 15 minutes before PAF; guinea pig
Description: Test 7: Testing for antiasthmatic effect
Anesthetized guinea pigs, which were cannulated in the jugular vein to allow injection of the PAF, were used for testing for antiasthmatic effect. The test preparations were also administered intravenously (i.v.), 5 min before PAF administration, into the blood stream through the same venous cannula, or else administered intraduodenally (i.d.), 15 minutes before the PAF, through an opening in the duodenum which had been installed and cannulated surgically. The bronchial width was recorded in an overflow pneumonogram before and after administering the preparation. Evaluation: ED50 in mg/kg i.d. as compared with the PAF-induced asthma attack.

Row | SMILES | activity at 10 µM [2] | IC50 [3] | activity at 10 µM [4] | activity at 10 µM [5] | activity at 100 µM [5] | activity at 10 µM [6] | ED50 [8] | other results
1 | CC(C)(C)c1cc(-c2cc(CCCO)on2)cc(C(C)(C)C)c1O [Example 26] | 94% | < 5 µM |  |  |  |  |  | activity at 10 µM [1]: 88%
2 | CC(O)C1CC(c2cc(C(C)(C)C)c(O)c(C(C)(C)C)c2)=NO1 (centres unmarked) [Example 18] |  | 5 to 10 µM | 89% |  |  |  |  | activity at 100 µM ([4]; 100 μM): 36%
3 | CC(=O)C1CC(c2cc(C(C)(C)C)c(O)c(C(C)(C)C)c2)=NO1 (centres unmarked) [Example 13] | 98% | 6.1 µM |  | 77% | 20% | 65% | ~50 mg/kg | activity at 25 µM ([6]; 25 μM): 22%; inhibition in vivo at 50 mg/kg ([7]; 50 mg/kg orally): 84%
4 | CCOC(=O)C(C)(C)OCc1cc(-c2cc(C(C)(C)C)c(O)c(C(C)(C)C)c2)no1 [Example 35] |  |  | 84% |  |  |  |  | activity at 100 µM ([2]; 100 μM): 94%
5 | C[C@@H](O)[C@@H]1CC(c2cc(C(C)(C)C)c(O)c(C(C)(C)C)c2)=NO1 (relative stereo) [Example 19] | 100% | < 5 µM |  | 78% | 20% | 94% |  | inhibition in vivo at 25 mg/kg ([7]; 25 mg/kg orally): 85%
6 | CC(=O)c1cc(-c2cc(C(C)(C)C)c(O)c(C(C)(C)C)c2)no1 [Example 59, 3-(4-Hydroxy-3,5-di-tert-butylphenyl)-5-acetylisoxazole] |  | 30 µM |  | 61% | 35% | 48% | 1 to 3 mg/kg | activity at 1 µM ([5]; 1 μM): 91%; activity at 1 µM ([6]; 1 μM): 135%
